Measurements from patent US20050154037A1, “Methods of using zonisamide as an adjunctive therapy for partial seizures” (Eisai Co., Ltd., priority 2004, published 2005).

How the values were obtained:
[1] = NMS case reports: onset of symptoms after cessation of zonisamide therapy; format: in vivo, patients; conditions: person with Parkinson's Disease
Source text: Cases ZON1000813 and ZON1000929 are adult cases from Japan. In both cases the patients carried a diagnosis of Parkinson's disease (PD) and were enrolled in a double blind, placebo controlled […] study of zonisamide as a potential treatment for PD (Protocol AD81 ON-202-1). In both cases the development of NMS appeared after the withdrawal of zonisamide (from 2 days to 14 days, respectively). In the former case, the study blind was broken, and the patient was documented to be on study medication (zonisamide), while in the second case, the blind was not broken. Case ZON1000926 is a spontaneous pediatric case from the US. In all of these cases there were weak or no confounding factors present.
A person carried a diagnosis of Parkinson's Disease (PD). The patient was enrolled in a double-blind, placebo controlled Phase II study designed to assess the potential utility of zonisamide in the treatment of PD. The patient's symptoms of NMS appeared 2 days after cessation of zonisamide therapy. Patients with PD are known to be at a rare, but increased risk for NMS. But NMS can occur spontaneously. See Ueda, et al., Neurology, Vol. 52, pp. 777-781, 1999.
A person carried a diagnosis of Parkinson's Disease (PD). The patient was enrolled in a double-blind, placebo controlled Phase II study designed to assess the potential utility of zonisamide in the treatment of PD. […]

[2] = tested on: GABA/benzodiazepine receptor ionophore complex; conditions: cited from earlier work
[3] = tested on: voltage-dependent, transient inward currents (T-type Ca^2+ currents); conditions: in vitro; cited from earlier work
[4] = tested on: cultured mouse spinal cord neurons; conditions: 10-30 μg/mL, cited from earlier work
sodium channels = conditions: in vitro; cited from earlier work
[5] = parameters: species or system patients; conditions: human, in vivo
Source text: The pharmacovigilance data that were collected, reviewed and analyzed provided the following information in respect of the incidence of NMS. To date, a total of 3 cases (two adult and one pediatric) fulfill the criteria of potential neuroleptic malignant syndrome. These cases were reviewed in detail for evaluation of possible safety signals. They were all deemed serious, and in all cases, the patients recovered with appropriate treatment.
Cases ZON1000813 and ZON1000929 are adult cases from Japan. In both cases the patients carried a diagnosis of Parkinson's disease (PD) and were enrolled in a double blind, placebo controlled […] study of zonisamide as a potential treatment for PD (Protocol AD81 ON-202-1). […]
Estimates of exposure, based upon retail and mail order prescriptions, indicate that the number of unique patients taking zonisamide capsules in the U.S. is about 37,276 (total prescriptions per year/average number of prescriptions per patient per year less a calculated percentage decrease based on estimated annual dropouts) in the time between approval in 2000 and December 2002. […] Similarly, the incidences of NMS estimated herein are unlikely to be higher than calculated. Based on the exposure data and number of NMS cases, the incidence of NMS in the U.S. and Japan is calculated to be about 1:37,276 unique patients and 1:592,588 unique patients, respectively.

[6] = tested on: dopaminergic and serotonergic neurotransmission; conditions: in vivo microdialysis; cited from earlier work
hepatic enzyme = conditions: cited from earlier work
carbonic anhydrase = conditions: relative to acetazolamide; called weak; cited from earlier work
rat hippocampal slices = conditions: 10-30 μg/mL; cited from earlier work

SMILES: NS(=O)(=O)Cc1noc2ccccc12 [zonisamide, 1,2-benzisoxazole-3-methanesulfonamide]
- appearance of NMS symptoms after cessation of zonisamide therapy ([1]; Phase II study (Example 1)): 2 days
- appearance of NMS symptoms after cessation of study medication ([1]; Phase II study, blind not broken (Example 2)): 14 days
- changes in chloride flux [2]: does not produce changes in chloride flux
- binding to the GABA/benzodiazepine receptor ionophore complex ([2]; in an allosteric fashion): binds
- effect on voltage-dependent, transient inward currents (T-type Ca2+ currents) [3]: reduces
- synaptically-driven electrical activity [4]: suppresses
- postsynaptic GABA or glutamate responses ([4]; cultured mouse spinal cord neurons): without affecting
- effect on sodium channels (sodium channels): blocks sodium channels
- cases that fulfill the criteria of potential neuroleptic malignant syndrome [5]: 3 cases
- incidence of NMS [5]: about 1:37,276 unique patients
- dopaminergic and serotonergic neurotransmission [6]: facilitates
- hepatic enzyme induction (hepatic enzyme): not known to be a hepatic enzyme inducer
- carbonic anhydrase inhibition compared to acetazolamide (carbonic anhydrase): 1/50
- neuronal or glial uptake of [3H]-GABA (rat hippocampal slices): without affecting
